{"source": "paper PMC8286599", "about": "(Gut Pathogens, 2021)", "key": {"[1]": {"system": "MDR-S. Typhimurium strains", "test": "MIC and MBC by broth microdilution with resazurin", "assay_type": "cell-based, Salmonella Typhimurium", "settings": "poultry droppings isolate", "from_the_text": "(§1) The characterised MDR field strains of EAEC (E1; E2; E3), S. Enteritidis (S1; S2; S3), and S. Typhimurium (ST1; ST2; ST3) maintained in the laboratory repository of Meat Safety Laboratory of ICAR-National Research Centre on Meat, Hyderabad re-validated using PCR assays were used to evaluate the in vitro antibacterial efficacy of phytochemicals. E. coli ATCC 25922 was used as the quality control strain.\n(§2) The antimicrobial efficacy of identified phytochemicals against multi-drug resistant EAEC and NTS strains was determined by estimating the minimum inhibitory concentration (MIC) and minimum bactericidal concentrations (MBC).\n(§3) Subsequent to the incubation period, resazurin dye (0.015 %) was added to all the wells to determine the dye reduction (pink) and thereby the bacterial inhibition."}, "[2]": {"system": "MDR-S. Enteritidis strains", "test": "Stability assay, cationic salts (MIC)", "excerpt": "(§4) To explore the utility of phytochemicals as therapeutic molecules and their stability, individual phytochemicals were exposed to cationic salts, and different pH levels followed by analysing their MIC and MBC values against test strains as described earlier.\n(§5) Subsequent to exposure to varied conditions, the antimicrobial activity of the phytochemicals was estimated by determining their MIC and MBC values against all the selected MDR strains of EAEC, S. Enteritidis, and S. Typhimurium as described earlier."}, "Haemolytic assay": {"test": "Haemolytic assay", "assay_type": "cell-based", "settings": "read-out: Haemolysis; for hemolysis at 0.5 X MIC: 0.50X MIC", "procedure": "The haemolytic assay of the individual phytochemical was performed by measuring the release of haemoglobin from sheep and human ‘O’ erythrocytes at 540 nm. The percentage of haemolysis was calculated as (Asample – APBS)/ (ATriton−X – APBS) ×100, in which Asample is the absorbance of phytochemical treatment, APBS is the absorbance of untreated control with PBS, and ATriton−X is the absorbance of lysed cells treated with Triton X-100 measured at 540 nm."}, "[3]": {"system": "MDR-S. Typhimurium strains", "test": "Stability assay, cationic salts (MIC)", "excerpt": "as §4, §5"}, "[4]": {"system": "MDR-S. Enteritidis strains", "test": "Stability assay, pH (MIC)", "excerpt": "as §4, §5"}, "[5]": {"system": "MDR-S. Typhimurium strains", "test": "Stability assay, pH (MIC)", "excerpt": "as §4, §5"}, "MDR-EAEC strains [6]": {"system": "MDR-EAEC strains", "test": "Stability assay, cationic salts (MIC)", "excerpt": "as §4, §5"}, "[7]": {"system": "MDR-S. Enteritidis strains", "test": "MIC and MBC by broth microdilution with resazurin", "assay_type": "cell-based, Salmonella Enteritidis", "settings": "poultry droppings isolate", "from_the_text": "as §1, §2, §3"}, "MDR-EAEC strains [8]": {"system": "MDR-EAEC strains", "test": "MIC and MBC by broth microdilution with resazurin", "assay_type": "cell-based, enteroaggregative Escherichia coli", "settings": "infant diarrhoea isolate", "from_the_text": "as §1, §2, §3"}, "MDR-EAEC strains [9]": {"system": "MDR-EAEC strains", "test": "Stability assay, pH (MIC)", "excerpt": "as §4, §5"}, "[10]": {"settings": "human 'O' erythrocytes, Human RBCs"}}, "note": "Where two headings read alike, the source gives them in different places."}
{"smiles": "O=C/C=C/c1ccccc1", "note": "[Cinnamaldehyde, cinnamaldehyde]", "values": [{"measurement": "MBC", "setting": "[1]; S. Typhimurium (ST1)", "value": 0.50, "unit": "µl/ml"}, {"measurement": "MIC", "setting": "[1]; S. Typhimurium (ST1)", "value": 0.25, "unit": "µl/ml"}, {"measurement": "MBC", "setting": "[1]; S. Typhimurium (ST2)", "value": 0.50, "unit": "µl/ml"}, {"measurement": "MIC", "setting": "[1]; S. Typhimurium (ST2)", "value": 0.25, "unit": "µl/ml"}, {"measurement": "MBC", "setting": "[1]; S. Typhimurium (ST3)", "value": 1.0, "unit": "µl/ml"}, {"measurement": "MIC", "setting": "[1]; S. Typhimurium (ST3)", "value": 0.12, "unit": "µl/ml"}, {"measurement": "MIC with cationic salt", "setting": "[2]; 2 mM MgCl2, strain S1", "value": 0.5, "unit": "µl/ml"}, {"measurement": "MIC with cationic salt", "setting": "[2]; 2 mM MgCl2, strain S2", "value": 0.5, "unit": "µl/ml"}, {"measurement": "MIC with cationic salt", "setting": "[2]; 2 mM MgCl2, strain S3", "value": 0.5, "unit": "µl/ml"}, {"measurement": "MIC with cationic salt", "setting": "[2]; 150 mM NaCl, strain S1", "value": 0.5, "unit": "µl/ml"}, {"measurement": "MIC with cationic salt", "setting": "[2]; 150 mM NaCl, strain S2", "value": 0.5, "unit": "µl/ml"}, {"measurement": "MIC with cationic salt", "setting": "[2]; 150 mM NaCl, strain S3", "value": 0.5, "unit": "µl/ml"}, {"measurement": "hemolysis at 0.25 X MIC", "setting": "Haemolytic assay; [10]", "value": 0.554, "unit": "%"}, {"measurement": "hemolysis at 0.5 X MIC", "setting": "Haemolytic assay; [10]", "value": 0.696, "unit": "%"}, {"measurement": "hemolysis at 1 X MIC", "setting": "Haemolytic assay; [10]", "value": 2.03, "unit": "%"}, {"measurement": "hemolysis at 2 X MIC", "setting": "Haemolytic assay; [10]", "value": 5, "unit": "%"}, {"measurement": "hemolysis at 4 X MIC", "setting": "Haemolytic assay; [10]", "value": 12.8, "unit": "%"}, {"measurement": "hemolysis at 8 X MIC", "setting": "Haemolytic assay; [10]", "value": 19.1, "unit": "%"}, {"measurement": "hemolysis at 0.25 X MIC", "setting": "Haemolytic assay; sheep erythrocytes, Sheep RBCs", "value": 0.109, "unit": "%"}, {"measurement": "hemolysis at 0.5 X MIC", "setting": "Haemolytic assay; sheep erythrocytes, Sheep RBCs", "value": 0.274, "unit": "%"}, {"measurement": "hemolysis at 1 X MIC", "setting": "Haemolytic assay; sheep erythrocytes, Sheep RBCs", "value": 3.61, "unit": "%"}, {"measurement": "hemolysis at 2 X MIC", "setting": "Haemolytic assay; sheep erythrocytes, Sheep RBCs", "value": 11.7, "unit": "%"}, {"measurement": "hemolysis at 4 X MIC", "setting": "Haemolytic assay; sheep erythrocytes, Sheep RBCs", "value": 12.5, "unit": "%"}, {"measurement": "hemolysis at 8 X MIC", "setting": "Haemolytic assay; sheep erythrocytes, Sheep RBCs", "value": 22, "unit": "%"}, {"measurement": "MIC with cationic salt", "setting": "[3]; 2 mM MgCl2, strain ST1", "value": 0.5, "unit": "µl/ml"}, {"measurement": "MIC with cationic salt", "setting": "[3]; 2 mM MgCl2, strain ST2", "value": 0.5, "unit": "µl/ml"}, {"measurement": "MIC with cationic salt", "setting": "[3]; 2 mM MgCl2, strain ST3", "value": 1.0, "unit": "µl/ml"}, {"measurement": "MIC with cationic salt", "setting": "[3]; 150 mM NaCl, strain ST1", "value": 0.5, "unit": "µl/ml"}, {"measurement": "MIC with cationic salt", "setting": "[3]; 150 mM NaCl, strain ST2", "value": 0.5, "unit": "µl/ml"}, {"measurement": "MIC with cationic salt", "setting": "[3]; 150 mM NaCl, strain ST3", "value": 1.0, "unit": "µl/ml"}, {"measurement": "MIC at given pH", "setting": "[4]; pH 4, strain S1", "value": 0.5, "unit": "µl/ml"}, {"measurement": "MIC at given pH", "setting": "[4]; pH 4, strain S2", "value": 0.5, "unit": "µl/ml"}, {"measurement": "MIC at given pH", "setting": "[4]; pH 4, strain S3", "value": 0.5, "unit": "µl/ml"}, {"measurement": "MIC at given pH", "setting": "[4]; pH 6, strain S1", "value": 0.5, "unit": "µl/ml"}, {"measurement": "MIC at given pH", "setting": "[4]; pH 6, strain S2", "value": 0.5, "unit": "µl/ml"}, {"measurement": "MIC at given pH", "setting": "[4]; pH 6, strain S3", "value": 0.5, "unit": "µl/ml"}, {"measurement": "MIC at given pH", "setting": "[4]; pH 8, strain S1", "value": 0.5, "unit": "µl/ml"}, {"measurement": "MIC at given pH", "setting": "[4]; pH 8, strain S2", "value": 0.5, "unit": "µl/ml"}, {"measurement": "MIC at given pH", "setting": "[4]; pH 8, strain S3", "value": 1.0, "unit": "µl/ml"}, {"measurement": "MIC at given pH", "setting": "[5]; pH 4, strain ST1", "value": 0.5, "unit": "µl/ml"}, {"measurement": "MIC at given pH", "setting": "[5]; pH 4, strain ST2", "value": 1.0, "unit": "µl/ml"}, {"measurement": "MIC at given pH", "setting": "[5]; pH 4, strain ST3", "value": 1.0, "unit": "µl/ml"}, {"measurement": "MIC at given pH", "setting": "[5]; pH 6, strain ST1", "value": 0.5, "unit": "µl/ml"}, {"measurement": "MIC at given pH", "setting": "[5]; pH 6, strain ST2", "value": 1.0, "unit": "µl/ml"}, {"measurement": "MIC at given pH", "setting": "[5]; pH 6, strain ST3", "value": 1.0, "unit": "µl/ml"}, {"measurement": "MIC at given pH", "setting": "[5]; pH 8, strain ST1", "value": 0.5, "unit": "µl/ml"}, {"measurement": "MIC at given pH", "setting": "[5]; pH 8, strain ST2", "value": 1.0, "unit": "µl/ml"}, {"measurement": "MIC at given pH", "setting": "[5]; pH 8, strain ST3", "value": 1.0, "unit": "µl/ml"}, {"measurement": "MIC with cationic salt", "setting": "MDR-EAEC strains [6]; 2 mM MgCl2, strain E1", "value": 0.5, "unit": "µl/ml"}, {"measurement": "MIC with cationic salt", "setting": "MDR-EAEC strains [6]; 2 mM MgCl2, strain E2", "value": 0.5, "unit": "µl/ml"}, {"measurement": "MIC with cationic salt", "setting": "MDR-EAEC strains [6]; 2 mM MgCl2, strain E3", "value": 0.5, "unit": "µl/ml"}, {"measurement": "Change of MIC values with cationic salts", "setting": "MDR-EAEC strains [6]; 150 mM NaCl and 2 mM MgCl2, MDR-EAEC strains", "value": "remained almost similar"}, {"measurement": "MIC with cationic salt", "setting": "MDR-EAEC strains [6]; 150 mM NaCl, strain E1", "value": 0.5, "unit": "µl/ml"}, {"measurement": "MIC with cationic salt", "setting": "MDR-EAEC strains [6]; 150 mM NaCl, strain E2", "value": 0.5, "unit": "µl/ml"}, {"measurement": "MIC with cationic salt", "setting": "MDR-EAEC strains [6]; 150 mM NaCl, strain E3", "value": 0.5, "unit": "µl/ml"}, {"measurement": "MBC", "setting": "[7]; S. Enteritidis (S1)", "value": 0.50, "unit": "µl/ml"}, {"measurement": "MIC", "setting": "[7]; S. Enteritidis (S1)", "value": 0.12, "unit": "µl/ml"}, {"measurement": "MBC", "setting": "[7]; S. Enteritidis (S2)", "value": 0.50, "unit": "µl/ml"}, {"measurement": "MIC", "setting": "[7]; S. Enteritidis (S2)", "value": 0.12, "unit": "µl/ml"}, {"measurement": "MBC", "setting": "[7]; S. Enteritidis (S3)", "value": 0.50, "unit": "µl/ml"}, {"measurement": "MIC", "setting": "[7]; S. Enteritidis (S3)", "value": 0.12, "unit": "µl/ml"}, {"measurement": "MBC", "setting": "MDR-EAEC strains [8]; EAEC (E1)", "value": 0.50, "unit": "µl/ml"}, {"measurement": "MIC", "setting": "MDR-EAEC strains [8]; EAEC (E1)", "value": 0.50, "unit": "µl/ml"}, {"measurement": "MBC", "setting": "MDR-EAEC strains [8]; EAEC (E2)", "value": 1.0, "unit": "µl/ml"}, {"measurement": "MIC", "setting": "MDR-EAEC strains [8]; EAEC (E2)", "value": 0.50, "unit": "µl/ml"}, {"measurement": "MBC", "setting": "MDR-EAEC strains [8]; EAEC (E3)", "value": 0.50, "unit": "µl/ml"}, {"measurement": "MIC", "setting": "MDR-EAEC strains [8]; EAEC (E3)", "value": 0.25, "unit": "µl/ml"}, {"measurement": "MIC at given pH", "setting": "MDR-EAEC strains [9]; pH 4, strain E1", "value": 0.5, "unit": "µl/ml"}, {"measurement": "MIC at given pH", "setting": "MDR-EAEC strains [9]; pH 4, strain E2", "value": 0.5, "unit": "µl/ml"}, {"measurement": "MIC at given pH", "setting": "MDR-EAEC strains [9]; pH 4, strain E3", "value": 0.5, "unit": "µl/ml"}, {"measurement": "MIC at given pH", "setting": "MDR-EAEC strains [9]; pH 6, strain E1", "value": 0.5, "unit": "µl/ml"}, {"measurement": "MIC at given pH", "setting": "MDR-EAEC strains [9]; pH 6, strain E2", "value": 0.5, "unit": "µl/ml"}, {"measurement": "MIC at given pH", "setting": "MDR-EAEC strains [9]; pH 6, strain E3", "value": 0.5, "unit": "µl/ml"}, {"measurement": "MIC at given pH", "setting": "MDR-EAEC strains [9]; pH 8, strain E1", "value": 0.5, "unit": "µl/ml"}, {"measurement": "MIC at given pH", "setting": "MDR-EAEC strains [9]; pH 8, strain E2", "value": 0.5, "unit": "µl/ml"}, {"measurement": "MIC at given pH", "setting": "MDR-EAEC strains [9]; pH 8, strain E3", "value": 0.5, "unit": "µl/ml"}]}
